In this assay the target is T1, Na+/I− symporter (NIS) (Rattus norvegicus, UniProt Q63008).
T1 sequence (Q63008 1-618): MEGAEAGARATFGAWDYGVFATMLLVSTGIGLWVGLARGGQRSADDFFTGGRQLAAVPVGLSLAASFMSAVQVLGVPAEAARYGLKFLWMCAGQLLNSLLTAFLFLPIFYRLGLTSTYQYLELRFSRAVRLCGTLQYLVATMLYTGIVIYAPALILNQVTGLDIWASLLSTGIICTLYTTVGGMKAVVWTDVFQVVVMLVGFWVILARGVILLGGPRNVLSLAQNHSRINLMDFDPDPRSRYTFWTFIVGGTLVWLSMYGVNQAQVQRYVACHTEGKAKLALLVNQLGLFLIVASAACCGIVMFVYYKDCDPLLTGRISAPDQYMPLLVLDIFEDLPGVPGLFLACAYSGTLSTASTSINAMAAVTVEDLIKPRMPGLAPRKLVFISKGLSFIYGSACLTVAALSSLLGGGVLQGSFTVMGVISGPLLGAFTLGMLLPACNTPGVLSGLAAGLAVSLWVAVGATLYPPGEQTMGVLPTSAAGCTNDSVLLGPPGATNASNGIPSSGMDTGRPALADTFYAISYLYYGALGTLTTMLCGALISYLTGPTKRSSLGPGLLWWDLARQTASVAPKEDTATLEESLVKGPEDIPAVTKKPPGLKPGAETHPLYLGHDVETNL
Kind of assay: inhibition of NIS-mediated […] radioiodide uptake. It counts as cell-based.

Broadly, the IC50 is the concentration that inhibits the measured activity by half. Higher therefore signals weaker potency in that assay. Take `[O-][Cl+3]([O-])([O-])O` [perchlorate]: the IC50 came out at 3 µM.

Values taken from publication PMC3736852 (Endocrine-related cancer, 2012).
